Values quoted from earlier work in patent publication US11447440B2, “Treprostinil monohydrate crystals and methods for preparation thereof” (CHIROGATE INTERNATIONAL INC., priority 2020, dated 2022).
Where two headings read alike, the source gives them in different places.

Conditions: for Treprostinil dimer formation on standing: stability tests

Treprostinil dimer formation (accelerated stability tests at 25° C., 30° C. and 40° C. for 6 months (Lot No. 01M07033)) | stability in comparison with the anhydrous Treprostinil crystal (storage at room temperature over a long period of time) | Treprostinil dimer formation on standing (at 5° C.) | Treprostinil dimer formation on standing (at higher temperature (than 25° C.)) | Treprostinil dimer formation on standing (standing at 25° C.) | SMILES
almost negligible | more stable |  |  |  | CCCCC[C@H](O)CC[C@@H]1[C@H]2Cc3c(cccc3OCC(=O)O)C[C@H]2C[C@H]1O.O [Treprostinil monohydrate crystal]
 |  | negligible | increased | continuing to form | CCCCC[C@H](O)CC[C@@H]1[C@H]2Cc3cccc(OCC(=O)O)c3C[C@H]2C[C@H]1O [anhydrous Treprostinil]
